The text below walks through data of the SangsterLogP compilation.

Assay in one data set: not given
What is called logP is the decadic logarithm of the partition coefficient of the neutral form, usually between octanol and water. Compound `BrC1CC2CCC1C2` (stereo unspecified) came in with a logP of 3.54.
`BrC12CC3CC1C2C3`: the logP stood at 3.11.

Another data set in a line: method code SF-HPLC, from DOI: 10.1021/je9900629.
As to `ClC1CC2CCC1C2` (stereo unspecified), the logP was 3.35.
`C1C2C3C2C2C1C32` (stereo unspecified) returned a lipophilicity (logP) of 2.9.
Compound `OC1C2CC3C1C3C2O` (stereo unspecified) yielded a logP of -0.42.
The compound `OC1CC2CCC1C2` (stereo unspecified) showed a logP of 1.45.
On to `C1CC2CCC1C2`, for which the logP worked out at 3.78.
In turn, `OC1C2CCC(C2)C1O` (stereo unspecified) registered a logP of 0.4.
Consider `OCC1CC2CCC1C2` (stereo unspecified), for which the lipophilicity (logP) came out at 1.99.
Regarding `C1CC2CC1C1OC21` (stereo unspecified), the logP came out at 1.58.
`OC(C1CC1)C1CC1` came in with a logP of 1.07.
On to `O=C1C2CC3C(C2)C13`, for which the logP worked out at 0.81.
`OC1CC2CCC1C2O` (stereo unspecified): the logP came to 0.4.

A short description of another data set: method code SF-AS, from DOI: 10.1021/je9900629.
In turn, `OC1CC2C=CC1C2` (stereo unspecified) displayed a logP of 1.24.
The compound `C1=CC2C=CC1C2` yielded a logP of 2.67.
`C1=CC2CCC1C2` had a logP of 3.24.
